Data from patent US6569878B1, “Substituted 4-amino-thiazol-2-yl compounds as cyclin-dependent kinase inhibitors” (Agouron Pharmaceuticals Inc., priority 1997, dated 2003).
pIC50, pKi: −log10 of the molar value. Where two headings read alike, the source gives them in different places.

What was measured:
[1] = molecular target: T1, complex of human CDK4 and cyclin D3 (Homo sapiens, UniProt P11802); test: Inhibition of CDK4/cyclin D retinoblastoma kinase activity (D-type cyclin is D3); type: biochemical; settings: superscript a: D-type cyclin is D3, read-out: Ki CDK 4/D; for pKi: apparent Ki
T1 construct: made in house; host or cells: insect cells, co-infected with baculovirus
T1 sequence (P11802 whole entry): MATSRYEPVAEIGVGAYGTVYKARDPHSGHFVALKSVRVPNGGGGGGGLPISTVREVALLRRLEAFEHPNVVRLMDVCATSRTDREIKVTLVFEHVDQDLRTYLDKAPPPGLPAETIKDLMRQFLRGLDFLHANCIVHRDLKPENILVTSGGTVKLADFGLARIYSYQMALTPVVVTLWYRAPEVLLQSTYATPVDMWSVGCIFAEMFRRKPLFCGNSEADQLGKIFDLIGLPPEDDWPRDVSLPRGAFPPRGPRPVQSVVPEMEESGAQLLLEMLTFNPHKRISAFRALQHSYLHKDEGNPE
T1 sequence (P30281 whole entry partner): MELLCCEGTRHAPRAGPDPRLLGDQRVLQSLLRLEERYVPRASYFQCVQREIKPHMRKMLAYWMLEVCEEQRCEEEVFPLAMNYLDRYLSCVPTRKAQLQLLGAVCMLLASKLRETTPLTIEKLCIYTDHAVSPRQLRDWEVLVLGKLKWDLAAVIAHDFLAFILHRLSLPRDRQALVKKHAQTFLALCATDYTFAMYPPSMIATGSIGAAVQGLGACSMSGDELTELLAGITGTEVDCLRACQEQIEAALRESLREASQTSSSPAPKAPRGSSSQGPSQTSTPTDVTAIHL
Procedure, shortened: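 Radiometric assay: [32P]- or [33P]ATP phosphate incorporation into Rb substrate at 30°C for 20 min, stopped with EDTA, filter-captured and phosphorimaged.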

[2] = molecular target: T2, complex of cyclin D1 and a fusion protein of human CDK4 and glutathione-S-transferase (GST-CDK4) (Homo sapiens, UniProt P11802); test: Inhibition of CDK4/cyclin D retinoblastoma kinase activity (D-type cyclin is D1); type: biochemical; settings: superscript b: D-type cyclin is D1, read-out: Ki CDK 4/D; for Ki: μM
T2 construct: made in house; host or cells: insect cells, co-infected with baculovirus
T2 sequence (P11802 whole entry, the tested form may be a part): as the sequence (P11802 whole entry) above
T2 sequence (P24385 whole entry partner, the tested form may be a part): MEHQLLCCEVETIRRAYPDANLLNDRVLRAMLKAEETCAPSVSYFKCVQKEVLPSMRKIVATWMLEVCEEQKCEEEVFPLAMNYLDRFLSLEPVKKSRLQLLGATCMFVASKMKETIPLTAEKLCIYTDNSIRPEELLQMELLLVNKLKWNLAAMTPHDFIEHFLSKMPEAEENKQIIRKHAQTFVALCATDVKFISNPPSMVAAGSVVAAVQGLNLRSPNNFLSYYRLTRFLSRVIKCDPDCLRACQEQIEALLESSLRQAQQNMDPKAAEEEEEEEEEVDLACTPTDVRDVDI
Experimental: Cyclin-dependent kinase activity was measured by quantifying the enzyme-catalyzed, time-dependent incorporation of radioactive phosphate from [^32P]ATP or [^33P]ATP into a protein substrate. Unless noted otherwise, assays were performed in 96-well plates in a total volume of 50 μL, in the presence of 10 mM HEPES (N-[2-hydroxyethyl]piperazine-N′-[2-ethanesulfonic acid]) (pH 7.4), 10 mM MgCl2, 25 μM adenosine triphosphate (ATP), 1 mg/mL ovalbumin, 5 μg/mL leupeptin, 1 mM dithiothreitol, 10 mM β-glycerophosphate, 0.1 mM sodium vanadate, 1 mM sodium fluoride, 2.5 mM ethylene glycol-bis(β-aminoethyl ether)-N,N,N′N′-tetraacetic acid (EGTA), 2% (v/v) dimethylsulfoxide, and 0.03-0.4 μCi [^32/33P]ATP per reaction. Reactions were initiated with enzyme, incubated at 30° C., and terminated after 20 minutes by the addition of ethylenediaminetetraacetic acid (EDTA) to 250 mM. The phosphorylated substrate was then captured on a nitrocellulose or phosphocellulose membrane using a 96-well filtration manifold, and unincorporated radioactivity was removed by repeated washing with 0.85% phosphoric acid. Radioactivity was quantified by exposing the dried membranes to a phosphorimager.
Apparent Ki values were measured by assaying enzyme activity in the presence of different inhibitor compound concentrations and subtracting the background radioactivity measured in the absence of enzyme. The kinetic parameters (kcat, Km for ATP) were measured for each enzyme under the usual assay conditions by determining the dependence of initial rates on ATP concentration. Inhibition data were fit to an equation for competitive inhibition using Kaleidagraph (Synergy Software), or were fit to an equation for competitive tight-binding inhibition using the software KineTic (BioKin, Ltd.).
A complex of human CDK4 and cyclin D3, or a complex of cyclin D1 and a fusion protein of human CDK4 and gluathione-S-transferase (GST-CDK4), or a complex of human CDK4 and genetically truncated (1-264) cyclin D3, was purified using traditional biochemical chromatographic techniques from insect cells that had been co-infected with the corresponding baculovirus expression vectors (see e.g., Meijer and Kim, “Chemical Inhibitors of Cyclin-Dependent Kinases,” Methods in Enzymol,. vol. 283 (1997), pp. 113-128.). The enzyme complex (5 or 50 nM) was assayed with 0.3-0.5 μg of purified recombinant retinoblastoma protein fragment (Rb) as a substrate. The engineered Rb fragment (residues 386-928 of the native retinoblastoma protein; 62.3 kDa) contains the majority of the phosphorylation sites found in the native 106-kDa protein, as well as a tag of six histidine residues for ease of purification. Phosphorylated Rb substrate was captured by microfiltration on a nitrocellulose membrane and quantified using a phosphorimager as described above. For measurement of tight-binding inhibitors, the enzyme complex concentration was lowered to 5 nM, and the assay duration was extended to 60 minutes, during which the time-dependence of product formation was linear.

CDK2/cyclin A = molecular target: T3, CDK2/cyclin A (Homo sapiens, UniProt P24941); test: Inhibition of CDK2/cyclin A retinoblastoma kinase activity; type: biochemical; settings: read-out: Ki CDK 2/A
T3 construct: made in house; host or cells: CDK2: insect cells (baculovirus); cyclin A: E. coli, then limited proteolysis
Procedure, shortened: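 Baculovirus-expressed CDK2 with excess proteolyzed cyclin A (or purified complex), 150 nM or 5 nM, phosphorylating an Rb fragment with 25 μM [32/33P]ATP, pH 7.4, 30° C, 20 min. Filter-captured radioactivity by phosphorimager; apparent Ki from fits to competitive or tight-binding competitive inhibition using measured ATP Km.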

[3] = molecular target: T4, human CDK1 (cdc2) and cyclin B (Homo sapiens, UniProt P06493); test: Inhibition of CDK1(cdc2)/cyclin B histone H1 kinase activity; type: biochemical; settings: read-out: Ki CDK 1/B
T4 construct: purchased New England Biolabs (Beverly Mass.)
T4 sequence (P06493 whole entry): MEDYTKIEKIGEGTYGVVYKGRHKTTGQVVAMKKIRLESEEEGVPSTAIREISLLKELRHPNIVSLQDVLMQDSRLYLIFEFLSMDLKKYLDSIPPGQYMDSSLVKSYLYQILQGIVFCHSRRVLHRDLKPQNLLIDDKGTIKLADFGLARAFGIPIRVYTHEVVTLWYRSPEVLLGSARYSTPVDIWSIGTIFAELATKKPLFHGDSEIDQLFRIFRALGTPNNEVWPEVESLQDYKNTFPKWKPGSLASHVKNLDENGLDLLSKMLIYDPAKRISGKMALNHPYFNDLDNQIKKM
T4 sequence (P14635 whole entry partner): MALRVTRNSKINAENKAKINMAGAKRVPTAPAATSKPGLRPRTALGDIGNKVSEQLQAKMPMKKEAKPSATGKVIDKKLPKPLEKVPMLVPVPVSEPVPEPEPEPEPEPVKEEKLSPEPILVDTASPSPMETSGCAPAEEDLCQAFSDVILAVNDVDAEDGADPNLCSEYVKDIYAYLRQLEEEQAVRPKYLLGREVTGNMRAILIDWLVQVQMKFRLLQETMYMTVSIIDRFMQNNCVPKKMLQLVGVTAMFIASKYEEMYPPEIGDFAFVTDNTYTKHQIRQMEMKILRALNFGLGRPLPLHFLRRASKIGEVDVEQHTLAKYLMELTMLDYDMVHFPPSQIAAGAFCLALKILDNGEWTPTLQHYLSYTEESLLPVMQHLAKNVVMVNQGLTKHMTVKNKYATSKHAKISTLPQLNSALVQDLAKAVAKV
Procedure, shortened: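 CDK1/cyclin B (commercial, or CDK1/GST-cyclin B1 from co-infected insect cells) phosphorylated histone H1 with 25 μM [32/33P]ATP at pH 7.4, 30° C for 20 min, 2% DMSO. Product captured on phosphocellulose and read by phosphorimager; apparent Ki from competitive or tight-binding fits, with Km for ATP determined.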

HCT116 = test: Inhibition of cell growth, MTT assay, HCT116; type: cell-based, human; settings: Homo sapiens, HCT-116
Procedure, shortened: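 Cells rested 4 h after plating, then exposed to graded compound concentrations in 0.5% (v/v) DMSO for four to six days (cell-type dependent) at 37° C, 5% CO2. Viability was read by MTT (0.2 mg/mL final, 4 h at 37° C), with DMSO-solubilized formazan measured at 540 nm.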

SW-480 = test: Inhibition of cell growth, MTT assay, SW-480; type: cell-based; settings: Homo sapiens, SW480; SW-480, MTT assay
Experimental: Inhibition of cell growth was measured using the tetrazolium salt assay, which is based on the ability of viable cells to reduce 3-(4,5-dimethylthiazol-2-yl)-2,5-[2H]-diphenyltetrazolium bromide (MTT) to formazan (Mossman, Journal of Immunological Methods, vol. 65 (1983), pp. 55-58). The water-insoluble purple formazan product was then detected spectrophotometrically. Various cell lines (HCT-116, Saos-2, U2-OS, SW480, COLO-205, RXF-393, M14, MDA-MB-468, and MCF7) were grown in 96-well plates. Cells were plated in the appropriate medium at a volume of 135 μl/well in either McCoy's 5A Medium (for Saos-2, U2-OS, SW480, and HCT-116 cells), RPMI (for COLO-205, RXF-393, M14 cells), or Minimum Essential Medium Eagle (for MDA-MB-468 and MCF7 cells). Plates were incubated for four hours before addition of inhibitor compounds. Different concentrations of inhibitor compounds were added in 0.5% (v/v) dimethylsulfoxide (15 μL/well), and cells were incubated at 37° C. (5% CO2) for four to six days (depending on cell type). At the end of the incubation, MTT was added to a final concentration of 0.2 mg/mL, and cells were incubated for 4 hours more at 37° C. After centrifugation of the plates and removal of medium, the absorbance of the formazan (solubilized in dimethylsulfoxide) was measured at 540 nm. […] All results were compared to control cells treated only with 0.5% (v/v) dimethylsulfoxide.

| pKi [1] | pKi [2] | pKi (CDK2/cyclin A) | pKi [3] | Ki [2] | Compound | further results |
| --- | --- | --- | --- | --- | --- | --- |
| 5.96 | 6.06 | 5.34 | 5.35 |  | CCNc1nc(N)c(C(=O)c2ccccc2)s1 [I(5)*] |  |
|  |  |  | 5.41 | 3.1 µM | Nc1nc(Nc2ccccc2)sc1C(=O)C1CC1 [I(4)*] | Ki (CDK2/cyclin A; μM): 4.3 µM |
|  | 6.31 | 6.05 |  |  | Nc1cccc(C(=O)c2sc(Nc3ccccc3)nc2N)c1 [D(1), (3-Amino-phenyl)-(4-amino-2-phenylamino-thiazol-5-yl)-methanone] |  |
| 6.19 | 6.99 | 6.34 | 6.30 |  | Nc1nc(Nc2ccccc2)sc1C(=O)c1ccccc1 [I(1)*] |  |
| 5.10 |  | 5.06 |  | ~30 µM | CC(=O)c1sc(Nc2ccccc2)nc1N [I(2)*] |  |
| 6.18 | 6.11 | 5.92 |  |  | Nc1nc(Nc2ccccc2)sc1C(=O)c1cccc([N+](=O)[O-])c1 [A(1), (4-Amino-2-phenylamino-thiazol-5-yl)-(3-nitrophenyl)-methanone] | pIC50 (HCT116): 5.60; IC90 (HCT116): 10 µM; pIC50 (SW-480): 5.40; IC90 (SW-480): 9 µM |
|  |  |  |  | > 100 µM | CC(=O)c1sc(NCc2ccccc2)nc1N [I(3)*] | Ki ([1]; μM): > 5 µM |
